“Also recorded” adds a separate entry of the source. Where a name gives a salt, the structure may show the parent alone.
Experiments:
[1] = tested on: HCV; assay: HCV-infected human liver slice assay (HCV RNA in culture medium); type: cell-based; conditions: for Log10 decrease in viral RNA from control at 48-72 h: HCV RNA in culture medium of HCV-infected human liver slices; for HCV RNA levels in the liver slice culture media versus control, untreated slices: in words, treatment for 72 h
Protocol: Inhibition of HCV replication in human liver tissue was evaluated using the following assay.
Liver from a brain-dead HCV antibody-positive human patient was perfused with ice-cold Viaspan (Dupont Pharmaceutical) preservation solution and received on ice in Viaspan.
Precision-cut liver slices of ˜200-250 μm thickness and […] diameter were prepared and cultured in Waymouth's cell culture medium (Gibco, Inc.) that was supplemented with 10% fetal bovine serum and 10 mL/L Fungi-Bact at 37° C., and gassed with carbogen (95% O2, 5% CO2) at 0.75 liters/min. Tissue slices were maintained in culture for 72 h. Cell culture medium containing test compound in solution was changed on a daily basis.
At appropriate times of liver slice incubation, liver slices and medium were collected for analysis of HCV RNA (tissue and medium) and nucleotide levels (NTP). All collected media and tissue slices were maintained in liquid N2 until analysis.
Medium and tissue samples were analyzed for HCV RNA levels according to published procedures (Bonacini et. al., 1999) which utilize an automated, multicycle, polymerase chain reaction (PCR)-based technique. This assay has a lower limit of detection for HCV RNA of 100 viral copies/ml.

[2] = design: species or system C57BL/6 mice; conditions: in vivo; for Liver NTP AUC: mouse
Protocol: The liver specificity of the compound 19 prodrug was compared relative to the parent nucleoside, 2′-C-methylguanosine, and for compound 21.1 prodrug relative to its parent nucleoside, 2′-C-methyladenosine, by measuring the generation of NTP in the liver compared to nucleoside in the plasma.
Compound 19 or 2′-C-methylguanosine were administered intraperitoneally to C57BL/6 mice at a dose of 30 mg/kg based on nucleoside equivalents (30 mg/kg 2′-C-methylguanosine and 53.27 mg/kg compound 19). Compound 21.1 or 2′-C-methyladenosine were administered intravenously to C57BL/6 mice at dose of about 5.5 mg/kg nucleoside equivalents (5.5 mg/kg 2′-C-methyladenosine and 10 mg/kg compound 21.1). Plasma concentrations of 2′-C-methylguanosine, compound 19, 2′-C-methyladenosine, and compound 21.1 were determined by HPLC-UV and the liver concentrations of the 5′-triphosphate of 2′-C-methylguanosine and 2′-C-methyladenosine were measured by LC-MS using the standard ion-pairing chromatography method for triphosphate as described in Example E. Conventional SAX HPLC-UV could not differentiate between endogenous GTP and 2′-C-methylguanosine triphosphate. Since an authentic standard of 2′-C-methylguanosine triphosphate was not available, the liver concentrations of the nucleotide were approximated as described in Example E.

Row | Compound | melting point [°C] | further results
1 | C[C@@]1(O)[C@H](O)[C@@H](CO[P@]2(=O)OCC[C@H](c3cccc(Cl)c3)O2)O[C@H]1n1cnc2c(=O)[nH]c(N)nc21 (relative stereo) [Compound 19, cis-5′-O-[4-(3-Chlorophenyl)-2-oxo-1,3,2-dioxaphosphorinan-2-yl]-2′-C-methyl-guanosine] |  | Log10 decrease in viral RNA from control at 48-72 h ([1]; 0.25 μM compound): 1.27 Log10; Log10 decrease in viral RNA from control at 48-72 h ([1]; 1 μM compound): 1.61 Log10; Log10 decrease in viral RNA from control at 48-72 h ([1]; 2.5 μM compound): 1.70 Log10; Log10 decrease in viral RNA from control at 48-72 h ([1]; 25 μM compound): 1.72 Log10; HCV RNA levels in the liver slice culture media versus control, untreated slices [1]: decreased; also recorded: more effective than treatment with the nucleoside; Liver Targeting Index (Liver/Plasma) ([2]; C57BL/6, mouse, ip, 30 mg/kg): 26.2; Prodrug Improvement (Fold) ([2]; C57BL/6, mouse, ip, 30 mg/kg): 30 Fold
2 | C[C@@]1(O)[C@H](O)[C@@H](CO)O[C@H]1n1cnc2c(N)ncnc21 [2′-C-methyladenosine, reference compound] |  | Plasma Nucleoside AUC ([2]; C57BL/6, mouse, iv, 5.5 mg/kg): 26.8 µM·h; Liver NTP AUC ([2]; iv, 5.5 mg/kg): 119 nmol·h/g
3 | C[C@@]1(O)[C@H](O)[C@@H](CO)O[C@H]1n1cnc2c(=O)[nH]c(N)nc21 [2′-C-methylguanosine, reference compound] |  | Log10 decrease in viral RNA from control at 48-72 h ([1]; 0.25 μM compound): 0.51 Log10; Log10 decrease in viral RNA from control at 48-72 h ([1]; 2.5 μM compound): 1.74 Log10; Log10 decrease in viral RNA from control at 48-72 h ([1]; 25 μM compound): 1.48 Log10; HCV RNA levels in the liver slice culture media versus control, untreated slices [1]: decreased; Liver Targeting Index (Liver/Plasma) ([2]; C57BL/6, mouse, ip, 30 mg/kg): 0.87
4 | C[C@@]1(O)[C@H](O)[C@@H](COP2(=O)OCC[C@@H](c3ccc(F)c(Br)c3)O2)O[C@H]1n1ccc2c(=O)[nH]c(N)nc21 (stereo partly drawn) [Compound 17.15, 2-amino-7-(cis-5′-O-[4-(3-bromo-4-fluoro-phenyl)-2-oxo-1,3,2-dioxaphosphorinan-2-yl]-2′-C methyl-beta-D-ribofuranosyl)-7H-pyrrolo[2,3-d]pyrimidin-4(3H)-one] | 175 to 179 | 
5 | C[C@@]1(O)[C@H](O)[C@@H](CO[P@]2(=O)OCC[C@H](c3ccccc3)O2)O[C@H]1n1ccc2c(=O)[nH]c(N)nc21 [Compound 17.16, 2-amino-7-(cis-5-O-[4-(R)-phenyl-2-oxo-1,3,2-dioxaphosphorinan-2-yl]-2-C methyl-beta-D-ribofuranosyl)-7H-pyrrolo[2,3-d]pyrimidin-4(3H)-one] | 128 to 133 | 
6 | CO[C@@H]1COP(=O)(OC[C@H]2O[C@@H](n3ccc4c(=O)[nH]c(N)nc43)[C@](C)(O)[C@@H]2O)O[C@@H]1c1cccc(Cl)c1 (stereo partly drawn) [Compound 17.19] | 148 to 151 | 
7 | C[C@@]1(O)[C@H](O)[C@@H](COP2(=O)OCC[C@H](c3ccccc3Br)O2)O[C@H]1n1ccc2c(=O)[nH]c(N)nc21 (stereo partly drawn) [Compound 17.21, 2-amino-7-(cis-5′-O-[4-(2-bromophenyl)-2-oxo-1,3,2-dioxaphosphorinan-2-yl]-2′-C methyl-beta-D-ribofuranosyl)-7H-pyrrolo[2,3-d]pyrimidin-4(3H)-one] | 180 | 
8 | C[C@@]1(O)[C@H](O)[C@@H](COP2(=O)OCC[C@H](c3cc(C(F)(F)F)cc(C(F)(F)F)c3)O2)O[C@H]1n1ccc2c(=O)[nH]c(N)nc21 (stereo partly drawn) [Compound 17.23] | 155 to 175 | 
9 | C[C@@]1(O)[C@H](O)[C@@H](COP2(=O)OCC[C@H](c3cccc(C(F)(F)F)c3)O2)O[C@H]1n1ccc2c(=O)[nH]c(N)nc21 (stereo partly drawn) [Compound 17.24] | 145 to 165 | 
10 | C[C@@]1(O)[C@H](O)[C@@H](COP2(=O)OCC[C@H](c3ccc(Cl)cc3Cl)O2)O[C@H]1n1ccc2c(=O)[nH]c(N)nc21 (stereo partly drawn) [Compound 17.25, 2-amino-7-(cis-5-O-[4-(2,4-dichlorophenyl)-2-oxo-1,3,2-dioxaphosphorinan-2-yl]-2-C methyl-beta-D-ribofuranosyl)-7H-pyrrolo[2,3-d]pyrimidin-4(3H)-one] | 175 | 
11 | C[C@@]1(O)[C@H](O)[C@@H](COP2(=O)OCCC(c3cccc(Cl)c3)O2)O[C@H]1n1cnc2c(N)ncnc21 (stereo partly drawn) [Compound 18, 5′-O-[4-(3-chlorophenyl)-2-oxo-1,3,2-dioxaphosphorinan-2-yl]-2′-C-methyladenosine] | 153 | 
12 | C[C@@]1(O)[C@H](O)[C@@H](COP2(=O)OCC[C@@H](c3cccc(Cl)c3)O2)O[C@H]1n1cnc2c(N)ncnc21 (stereo partly drawn) [Compound 21.1, cis-5′-O-[4-(S)-(3-chlorophenyl)-2-oxo-1,3,2-dioxaphosphorinan-2-yl]-2′-C-beta-methyl-adenosine trifluoroacetic acid salt] |  | Liver NTP AUC ([2]; iv, 5.5 mg/kg): 502 nmol·h/g
13 | C[C@@]1(O)[C@H](O)[C@@H](COP2(=O)OCC[C@@H](c3cccc(C#N)c3)O2)O[C@H]1n1cnc2c(N)ncnc21 (stereo partly drawn) [Compound 21.2, cis-5′-O-[4-(3-cyanophenyl)-2-oxo-1,3,2-dioxaphosphorinan-2-yl]-2′-C-beta-methyl-adenosine] | 153 to 156 | 
14 | C[C@@]1(O)[C@H](O)[C@@H](COP2(=O)OCC[C@@H](c3cc(F)ccc3F)O2)O[C@H]1n1cnc2c(N)ncnc21 (stereo partly drawn) [Compound 21.3, cis-5′-O-[4-(2,5difluorophenyl)-2-oxo-1,3,2-dioxaphosphorinan-2-yl]-2′-C-beta-methyl-adenosine] | 75 to 78 | 
15 | C[C@@]1(O)[C@H](O)[C@@H](COP2(=O)OCC[C@@H](c3cc(F)cc(F)c3)O2)O[C@H]1n1cnc2c(N)ncnc21 (stereo partly drawn) [Compound 21.4, cis-5′-O-[4-(3,5-difluorophenyl)-2-oxo-1,3,2-dioxaphosphorinan-2-yl]-2′-C-beta-methyl-adenosine] | 120 to 123 | 
16 | C[C@@]1(O)[C@H](O)[C@@H](COP2(=O)OCC[C@@H](c3cccc(Br)c3)O2)O[C@H]1n1cnc2c(N)ncnc21 (stereo partly drawn) [Compound 21.6, cis-5′-O-[4-(3-bromophenyl)-2-oxo-1,3,2-dioxaphosphorinan-2-yl]-2′-C-beta-methyl adenosine] | 108 to 110 | 
17 | C[C@@]1(O)[C@H](O)[C@@H](COP2(=O)OCC[C@@H](c3cccnc3)O2)O[C@H]1n1cnc2c(N)ncnc21 (stereo partly drawn) [Compound 21.9, cis-5′-O-[4-(pyridine-3-yl)-2-oxo-1,3,2-dioxaphosphorinan-2-yl]-2′-C-beta-methyl-adenosine] | 137 to 140 | 
18 | CC(=O)O[C@@H]1[C@@H](COP2(=O)OCC[C@H](c3ccncc3)O2)O[C@@H](n2ccc3c(N)ncnc32)[C@]1(C)O (stereo partly drawn) [Compound 22.1, 4-amino-7-(3′-acetyl-cis-5′-O-[4-(S)-(pyridin-4-yl)-2-oxo-1,3,2-dioxaphosphorinan-2-yl]-2′-C-methyl-beta-D-ribofuranosyl)-7H-pyrrolo[2,3-d]pyrimidine] | 182 to 185 | 
19 | CC(=O)O[C@@H]1[C@@H](COP2(=O)OCC[C@H](c3cccc(Cl)c3)O2)O[C@@H](n2ccc3c(N)ncnc32)[C@]1(C)O (stereo partly drawn) [Compound 22.2, 4-amino-7-(3′-acetyl-cis-5′-O-[4-(S)-(3-chlorophenyl)-2-oxo-1,3,2-dioxaphosphorinan-2-yl]-2′-C-methyl-beta-D-ribofuranosyl)-7H-pyrrolo[2,3-d]pyrimidine] | 90 to 93 | 
20 | C[C@@]12OC(=O)O[C@@H]1[C@@H](COP1(=O)OCC[C@H](c3cccc(Cl)c3)O1)O[C@H]2n1ccc2c(N)ncnc21 (stereo partly drawn) [Compound 23.1, 4-amino-7-(2′,3′-carbonyl-cis-5′-O-[4-(S)-(3-chlorophenyl)-2-oxo-4,3,2-dioxaphosphorinan-2-yl]-2′-C-methyl-beta-D-ribofuranosyl)-7H-pyrrolo[2,3-d]pyrimidine] | 127 to 130 | 
21 | C[C@@]12OC(=O)O[C@@H]1[C@@H](COP1(=O)OCC[C@H](c3ccncc3)O1)O[C@H]2n1ccc2c(N)ncnc21 (stereo partly drawn) [Compound 23.2, 4-amino-7-(2′,3′-carbonyl-cis-5′-O-[4-(S)-(pyridin-4-yl)-2-oxo-1,3,2-dioxaphosphorinan-2-yl]-2′-C-methyl-beta-D-ribofuranosyl)-7H-pyrrolo[2,3-d]pyrimidine] | 192 to 195 | 
22 | C[C@@]1(O)[C@H](O)[C@@H](CO)O[C@H]1n1ccc2c(N=[N+]=[N-])ncnc21 [Compound 25.1, 4-azido-7-(2′-C-methyl-beta-D-ribofuranosyl)-7H-pyrrolo[2,3-d]pyrimidine] | 179 to 180 | 

— patent US20050182252A1, “Novel 2'-C-methyl nucleoside derivatives” (priority 2004, published 2005)
